Here are results for 3 compounds from paper PMC5435703 (Scientific Reports, 2017).

Converted amounts (≈) assume the structure as drawn. Where two headings read alike, the source gives them in different places.

The test system of one data set is S. aureus. Also noted: method as in PMID 24389824. The note with it: initial studies; cited from earlier work.
For data set [1], the system named is MRSA BAA-1707. The data set is described as follows: MIC broth microdilution assay. Format: cell-based, Staphylococcus aureus. (Dilution methods test growth across graded concentrations, often in twofold steps.)
Another data set concerns MRSA-1. Description: MIC broth microdilution assay. The note with it: Staphylococcus aureus, MRSA. Format: cell-based, Staphylococcus aureus.
The test system of a further data set is MRSA-2. The data set is described as follows: MIC broth microdilution assay. Format: cell-based, Staphylococcus aureus. The note with it: Staphylococcus aureus, MRSA; Table 1; read-out: MIC MRSA-2.
For a further data set, the system named is MRSE 35984. Description: MIC broth microdilution assay. The note with it: Staphylococcus epidermidis, MRSE. Format: cell-based, Staphylococcus epidermidis.
In a further data set the test system is VRE 700221. The data set is described as follows: MIC broth microdilution assay. Format: cell-based, Enterococcus faecium. The note with it: Enterococcus, VRE, Table 1; read-out: MIC VRE 700221.
The test system of another data set is MRSA, MRSE and VRE. The data set is described as follows: MIC assays, summary over strains. Format: cell-based. The note with it: read-out: MIC against all strains tested against.
A further data set relates to MRSA BAA-44. Description: MIC broth microdilution assay. Format: cell-based. The note with it: Staphylococcus aureus.
The subject of another data set is S. epi 12228. Description: MIC broth microdilution assay. Format: cell-based, Staphylococcus epidermidis. The note with it: Staphylococcus epidermidis, 12228; Table 1; read-out: MIC S. epi 12228.
For another data set, the system named is MtB H37Ra. Description: MIC assay for Mycobacterium tuberculosis. Format: cell-based. The note with it: 168 h, seven days.
Data set [2] is described as follows: LDH release assay for HeLa cytotoxicity. Format: cell-based. The note with it: human, HeLa cells; LDH release, 24 hours; tested at 25, 50 and 100 µM; read-out: HeLa Cytotox. IC50. For orientation: LDH in the medium is a marker of cell lysis.
The subject of data set [3] is MRSA BAA-1707. The data set is described as follows: MIC assay with metal(II) cation co-treatment. Format: cell-based, Staphylococcus aureus.
The next data set in a line: UV-Vis metal(II) binding. Format: physicochemical. The note with it: UV-Vis kinetics, compared to HP 1. Here is the method: The rates of halogenated phenazine-copper(II) complex formation were independently evaluated via UV-Vis spectrometry following addition of 0.5 equivalents copper(II) sulfate to stirring solutions of HP (10 mM, 4 mL) in dimethyl sulfoxide. Spectral scanning was performed from 200 to 800 nm in 2 nm increments. The disappearance of HPs 1, 17 and 22 was observed over the indicated time points. The halogenated phenazine-copper(II) complex formation yielded a loss in absorbance due to precipitation.

The test system of data set [4] is MRSA BAA-1707. The data set is described as follows: Calgary Biofilm Device (CBD) MBC/MBEC assay. The note with it: for MBC: Staphylococcus aureus. Format: cell-based, Staphylococcus aureus.
A further data set relates to four MRSA isolates. Description: MIC assays, panel of four MRSA isolates. Format: cell-based. The note with it: Staphylococcus aureus, range over isolates, read-out: MIC against a panel of four MRSA isolates.
The next data set deals with S. epidermidis. Description: MIC assays, S. epidermidis strains. Format: cell-based. The note with it: Staphylococcus epidermidis; range over strains.
Data set [5] is described as follows: Hemolysis assay with red blood cells. The note with it: human, pH 7.2.
The test system of another data set is MRSA-1707 biofilms. The data set is described as follows: Live/Dead staining (fluorescence microscopy) of biofilms. The note with it: 0.1, 1 and 5 µM, 24 hours.

Experimental for MRSA-1707 biofilms: A mid-log culture of MRSA BAA-1707 was diluted 1:1,000-fold and 500 µL was transferred to each compartment of a 4 compartment CELLview dish (Greiner Bio-One 627871). The dish was then incubated for 24 hours at 37 °C. After this time, the cultures were removed and the plate was washed with 0.9% saline. The dish was then treated with the compounds in fresh media at various concentrations. DMSO was used as our negative control in this assay. The dish was incubated with the compound for 24 hours at 37 °C. After this time, the cultures were removed and the dish was washed with 0.9% saline for 2 minutes. Saline was then removed and 500 µL of the stain (Live/Dead BacLight Viability Kit, Invitrogen) were added for 15 minutes and left in the dark. After this time, the stain was removed and the dish was washed twice with 0.9% saline. Then the dish was fixed with 500 µL 4% paraformaldehyde in PBS for 30 minutes. Images of remaining MRSA biofilms were then taken with a fluorescence microscope. All data were analyzed using ImageJ software from three independent experiments.
E.) Live / Dead staining (Fluorescence Microscopy) of MRSA BAA-1707 Biofilms: […]
the cultures were removed and the dish was washed with 0.9% saline for 2 minutes. […] Images of remaining MRSA biofilms were then taken with a fluorescence microscope. All data were analyzed using Image J software from three

For `Oc1c(Br)ccc2nc3ccccc3nc12` [2-bromo-1-hydroxyphenazine, reference compound], the “MIC S. aureus” value with S. aureus is 6.25 µM (≈ 1.72 µg/mL).
On to `Oc1c(Br)cc(Br)c2nc3c(O)c(Br)cc(Br)c3nc12` [HP 15], for which the MIC in the data set with MRSA BAA-1707 [1] (Staphylococcus aureus, Table 1, three independent experiments, read-out: MIC MRSA BAA-1707) is greater than 50 µM; in the data set with MRSA BAA-1707 [1] (Table 1, three independent experiments, read-out: MIC MRSA BAA-1707), greater than 50 µM; in the data set with MRSA-1 (Table 1, read-out: MIC MRSA-1) it was greater than 50 µM; in the data set on MRSA-1 (single plate shown as picture, read-out: MIC (µM), MIC Assay Against MRSA-1), greater than 50 µM; in the data set with MRSA-2, greater than 50 µM; in the data set on MRSE 35984 (Table 1, read-out: MIC MRSE 35984) it was greater than 50 µM. In addition, the MIC is greater than 50 µM in the data set with VRE 700221; greater than 50 µM in the data set on MRSA, MRSE and VRE.
What is called IC50 is the midpoint of a concentration-inhibition curve. As for `Cc1cccc2nc3c(O)c(Br)cc(Br)c3nc12` [HP 17, 6-methyl-2,4-dibromo-1-hydroxyphenazine], the MIC with MRSA BAA-1707 [1] (Staphylococcus aureus, Table 3, read-out: MRSA BAA-1707 MIC) is 0.3 µM (≈ 0.11 µg/mL); in the data set with MRSA BAA-1707 [1] (Staphylococcus aureus, single plate shown as picture, read-out: MIC (µM), MIC Assay against MRSA BAA-1707), 0.2 µM (≈ 0.0736 µg/mL); in the data set on MRSA BAA-44 (single plate shown as picture, read-out: MIC (µM), MIC Assay Against MRSA BAA-44) it was 0.39 µM (≈ 0.144 µg/mL); with MRSA BAA-44 (Table 1, read-out: MIC MRSA BAA-44) it was 0.39 µM (≈ 0.144 µg/mL); in the data set with MRSA-1 (Table 1, read-out: MIC MRSA-1), no more than 0.1 µM; in the data set on MRSA-2, 0.3 µM (≈ 0.11 µg/mL). In addition, the MIC turned out to be 0.3 µM (≈ 0.11 µg/mL) in the data set on MRSE 35984 (Table 3, read-out: MRSE 35984 MIC); 0.39 µM (≈ 0.144 µg/mL) in the data set with S. epi 12228; 25 µM (≈ 9.2 µg/mL) against MtB H37Ra; 0.2 µM in the data set on MRSA BAA-1707 [3] (Staphylococcus aureus, Cu(II) co-treatment plate, lanes without metal, read-out: MIC); 0.39 µM in the data set on MRSA BAA-1707 [3] (Staphylococcus aureus, Fe(II) co-treatment plate, lanes without metal, read-out: MIC); 0.2 µM in the data set on MRSA BAA-1707 [3] (Staphylococcus aureus, Mg(II) co-treatment plate, lanes without metal, read-out: MIC). Further, the MIC with MRSA BAA-1707 [3] (Staphylococcus aureus, Table 2, MRSA BAA-1707, no metal(II) cation added, read-out: MIC) was determined as 0.3 µM; with MRSA BAA-1707 [3] (Staphylococcus aureus, Zn(II) extended plate assay, lanes without metal, read-out: MIC), 0.2 µM; with MRSA BAA-1707 [3] (Staphylococcus aureus, copper(II) at 200 µM co-treatment, read-out: MIC w/Cu2+), 75 µM; in the data set with MRSA BAA-1707 [3] (Staphylococcus aureus, extended plate assay, 200 µM Zn(II), read-out: MIC (µM) + Zn(II)), 0.05 µM; with MRSA BAA-1707 [3] (Staphylococcus aureus, iron(II) at 200 µM co-treatment, read-out: MIC w/Fe2+) it was 12.5 µM; in the data set on MRSA BAA-1707 [3] (Staphylococcus aureus, magnesium(II) at 200 µM co-treatment, read-out: MIC w/Mg2+), 0.3 µM. In addition, the MIC with MRSA BAA-1707 [3] (Staphylococcus aureus, single plate, 200 µM Fe(II), read-out: MIC (µM) + Fe(II)) was 12.5 µM; in the data set on MRSA BAA-1707 [3] (Staphylococcus aureus, single plate, 200 µM Mg(II), read-out: MIC (µM) + Mg(II)) it was 0.2 µM; in the data set on MRSA BAA-1707 [3] (Staphylococcus aureus, zinc(II) at 200 µM co-treatment, read-out: MIC w/Zn2+), 0.05 µM; in the data set on MRSA BAA-1707 [3] (single plate, 200 µM Cu(II), read-out: MIC (µM) + Cu(II)), 50 µM; with four MRSA isolates, 0.05 to 0.59 µM (≈ 0.0184 to 0.217 µg/mL); in the data set with S. epidermidis, 0.3 to 0.39 µM (≈ 0.11 to 0.144 µg/mL). Besides, the half-maximal inhibitory concentration (IC50) at 24 h in data set [2] is greater than 100 µM. The “rate of copper(II) chelation” value in “UV-Vis metal(II) binding” was “faster rate than HP 1”. Besides, in the data set with MRSA BAA-1707 [4] (CBD, biofilm eradication, 24 hours treatment), the “MRSA BAA-1707 MBEC” value is recorded as 6.25/6.25 µM. For the same compound, the “MRSA-1707 Biofilm Eradication MBEC” value in the data set with MRSA BAA-1707 [4] (Figure 7A, single CBD plate) is on record as 6.25 µM. Moreover, the MBC turned out to be 6.25 µM (≈ 2.3 µg/mL) with MRSA BAA-1707 [4] (24 h, CBD, planktonic killing, 24 hours treatment, read-out: MRSA BAA-1707 MBC); 6.25 µM (≈ 2.3 µg/mL) with MRSA BAA-1707 [4] (24 h, supplement page 27, first CBD plate, read-out: MRSA Planktonic Killing MBC); 6.25 µM (≈ 2.3 µg/mL) in the data set on MRSA BAA-1707 [4] (Figure 7A, single CBD plate, read-out: MRSA-1707 Planktonic Eradication MBC). Further, the hemolysis at 1 h, 200 µM in data set [5] came to 6.7%. In addition, the “Live/Dead staining response of established biofilms” value in the data set with MRSA-1707 biofilms was “potent biofilm eradication and clearance response”.
